The values that follow come from patent publication US10238642B2, “Methods for treating neurogenic orthostatic hypotension” (Theravance Biopharma R&D IP, LLC, priority 2016, dated 2019).

Assay [1] concerns the target T1, SERT (Rattus norvegicus, UniProt P31652).
T1 construct: Spinal cords were dissected for ex vivo transporter occupancy and PK assessments from the same animals; from tissue; host or cells: lumbar spinal cord of orally dosed male Sprague Dawley rats
The assay is described as follows: Ex vivo transporter occupancy in rat spinal cord (PK/PD model), SERT. Here is the method: (§1) Adult male Sprague Dawley rats (Charles River) were housed under controlled laboratory conditions (temperature at 21±1° C.) on a 12:12 hour light-dark cycle. Animals were given free access to food and water upon arrival to the facility and animals were acclimatized to their holding room for at least 48 hours. Animals were fasted but allowed free access to water for 15-18 hours prior to dosing.
(§2) Rats (n=6/timepoint/dose level) received a single oral dose of 4-[2-(2,4,6-trifluorophenoxymethyl)phenyl]piperidine (0.3, 1, 5, 10, 30, and 60 mg/kg) and were euthanized by decapitation at specified time points (0.5, 2, 4, 6, and 8 hr for 5 mg/kg dose level; 2 hr for 0.3, 1, 10, 30, and 60 mg/kg dose levels) post-administration. Spinal cords were dissected for ex vivo transporter occupancy and PK assessments from the same animals. The spinal cord was harvested by hydraulic extrusion using phosphate-buffered saline, and the lumbar segment dissected and frozen on dry ice. The remaining spinal cord segments were collected and homogenized in water (25% w/w) for PK analysis. All samples were stored at −80° C. until analysis.
A kinetic radioligand binding assay was used to determine NET and SERT occupancy in rat spinal cord, as described previously in Bourdet et al., J. Pharm. Exp. Ther. (2012) 341:137-145. […] One- and two-compartment PK models with first-order absorption and elimination were evaluated. […]

Assay [2] addresses NET (Rattus norvegicus, UniProt Q9WTR4). The assay is described as follows: Ex vivo transporter occupancy in rat spinal cord (PK/PD model), NET. As to conditions: estimate (% CV). Here is the method: as §1, §2
A kinetic radioligand binding assay was used to determine NET and SERT occupancy in rat spinal cord, as described previously in Bourdet et al., J. Pharm. Exp. Ther. (2012) 341:137-145. PK/PD parameters were estimated by a compartmental modeling approach (WinNonlin Version 5.0.1, Pharsight Corporation). One- and two-compartment PK models with first-order absorption and elimination were evaluated. The one-compartment model was selected. The pharmacodynamics model was an effect compartment Emax model linked directly to the central PK compartment (WinNonlin PK Model 3, PD Model 101). Selection of models was based upon best fit in terms of visual inspection, Akaike Information Criteria, and weighted residual sum of squares using the Gauss-Newton minimization method.

The subject of assay [3] is anesthetized rats. Briefly: Cardiovascular model in anesthetized rat: intrinsic effect on MAP and HR. The format is in vivo. As to conditions: IP. Here is the method: These studies were conducted to assess the effect of a single administration of 4-[2-(2,4,6-trifluorophenoxymethyl)phenyl]piperidine on heart rate (HR) and mean arterial pressure (MAP) in anesthetized rats.
Normotensive male Sprague-Dawley rats weighing between 250-350 g were anesthetized with an intraperitoneal injection (IP) of thiobutabarbital (Inactin). All animals were kept under complete anesthesia (i.e., absence of response to toe pinch test) for the surgery and for the duration of the study. The right common carotid artery and jugular vein were isolated and catheterized. The trachea was intubated to keep the airway open during the study. After completion of surgery, the arterial catheter was connected to a pressure transducer and baseline blood pressure [Systolic (SBP), Mean Arterial (MAP) and Diastolic (DBP)] and heart rate (HR) were recorded using the Notocord-HEM data acquisition system. Following at least 60 min of baseline (i.e., the last 10 min was stable), vehicle (10% Tween20, 2 mL/kg, IP) was administered and any potential effect was monitored for at least 10 min. After this period, rats were injected with either vehicle or 4-[2-(2,4,6-trifluorophenoxymethyl)phenyl]piperidine ([…], 2 mL/kg, IP) and changes in MAP and HR were monitored for 25 min. […]

Sequence of NET (Q9WTR4 1-597): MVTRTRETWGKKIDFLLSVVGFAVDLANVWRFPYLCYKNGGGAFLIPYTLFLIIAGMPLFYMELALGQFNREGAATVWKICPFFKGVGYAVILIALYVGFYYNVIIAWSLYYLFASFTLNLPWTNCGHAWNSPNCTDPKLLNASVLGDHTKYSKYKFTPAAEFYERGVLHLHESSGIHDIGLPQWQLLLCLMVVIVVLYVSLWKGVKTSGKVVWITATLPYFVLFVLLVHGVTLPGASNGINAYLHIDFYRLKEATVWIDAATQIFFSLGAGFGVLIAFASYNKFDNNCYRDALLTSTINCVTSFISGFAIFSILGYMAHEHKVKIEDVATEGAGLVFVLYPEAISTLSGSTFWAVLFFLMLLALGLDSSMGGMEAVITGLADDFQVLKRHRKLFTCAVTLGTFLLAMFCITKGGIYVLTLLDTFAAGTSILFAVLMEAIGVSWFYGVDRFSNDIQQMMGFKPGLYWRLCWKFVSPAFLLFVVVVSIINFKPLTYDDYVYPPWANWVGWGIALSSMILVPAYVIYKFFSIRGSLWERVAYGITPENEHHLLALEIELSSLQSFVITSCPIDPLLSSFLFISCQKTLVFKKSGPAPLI
T1 sequence (P31652 whole entry): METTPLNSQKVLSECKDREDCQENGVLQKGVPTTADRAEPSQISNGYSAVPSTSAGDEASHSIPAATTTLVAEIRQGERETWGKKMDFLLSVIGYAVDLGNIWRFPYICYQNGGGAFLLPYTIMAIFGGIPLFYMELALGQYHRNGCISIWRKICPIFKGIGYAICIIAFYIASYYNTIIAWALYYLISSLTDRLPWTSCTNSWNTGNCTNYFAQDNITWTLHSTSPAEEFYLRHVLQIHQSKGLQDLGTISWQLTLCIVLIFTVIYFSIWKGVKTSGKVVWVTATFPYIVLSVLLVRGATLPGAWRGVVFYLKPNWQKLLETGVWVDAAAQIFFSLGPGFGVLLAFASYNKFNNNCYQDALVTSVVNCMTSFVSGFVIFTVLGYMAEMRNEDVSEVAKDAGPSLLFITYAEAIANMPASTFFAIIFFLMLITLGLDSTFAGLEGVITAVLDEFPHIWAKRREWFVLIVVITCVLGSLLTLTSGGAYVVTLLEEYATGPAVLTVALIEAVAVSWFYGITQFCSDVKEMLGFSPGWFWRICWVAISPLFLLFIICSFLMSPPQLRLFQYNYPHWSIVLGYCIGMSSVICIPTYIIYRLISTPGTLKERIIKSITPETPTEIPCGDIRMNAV

A word on the EC50: it is the concentration giving half of the maximal effect. For `Fc1cc(F)c(OCc2ccccc2C2CCNCC2)c(F)c1` [4-[2-(2,4,6-trifluorophenoxymethyl)phenyl]piperidine], the EC50 in assay [1] (projected from rat, accounting for species differences in plasma protein binding) is 74.4 nM; in assay [2] (rat spinal cord) it was 36.4 nM. Further, the “keo (first-order equilibration rate constant), SERT” value in assay [1] (rat, estimate (% CV)) is reported as 11.0 (86) hr^−1. Besides, in assay [2] (rat spinal cord, single oral dose), the “Emax (% occupancy), NET” value was 92.0 (19) % occupancy. In assay [2] (rat), the “keo (first-order equilibration rate constant), NET” value is 1.78 (57) hr^−1. In addition, the “HR EC25 (free plasma concentration that produced a change in HR of 25 bpm)” value in assay [3] worked out at 8.6 nM. In addition, in assay [3], the “MAP EC10 (free plasma concentration that produced a change in MAP of 10 mm Hg)” value was 101.4 nM.
